In patent publication US4082736A, “Novel immunological adjuvant compounds and methods of preparation thereof” (Syntex (U.S.A.) Inc., priority 1976, dated 1978):

What was measured:
guinea pig [1] = test: Antibody titre (antibovine serum albumin or antiovalbumin) in sera by passive hemagglutination or Farr radioimmune assay; type: in vivo; conditions: s.c. in FIA emulsion, sera of day 42, relative to FIA = 1
Protocol: (§1) The antigen mixture used consists of 20 μg. of arsanilic tyrosine and 100 μg. of protein [either bovine serum albumin (BSA) or ovalbumin]. The antigen mixture and the compounds to be tested, at the dose levels per guinea pig shown in the Table below, are dissolved in saline and emulsified with an equal volume of Freund's Incomplete Adjuvant (FIA). Groups of ten guinea pigs are used for each test compound and each guinea pig is injected with 0.1 ml. of the above emulsion, subcutaneously, in the nuchal region. Control groups are given the antigen mixture alone emulsified with FIA.
On day 42 all animals are bled by cardiac puncture and the sera assayed for antibovine serum albumin or antiovalbumin antibodies by the passive hemagglutination technique or by radioimmune assay using the Farr technique (P. Minden and R. S. Farr in "Handbook of Experimental Immunology", edited by D. M. Weir, Chapter 15, Volume 1, Blackwell Scientific Publications, Oxford) using ^125 iodine labeled bovine serum albumin. Average potencies of these assays are presented in Column 2 of the Table below relative to FIA having the value of one.

guinea pig [2] = test: Delayed hypersensitivity skin test to arsanilic tyrosine after immunisation with antigen mixture plus test compound in FIA; type: in vivo; conditions: s.c. in FIA emulsion, skin test day 14, read at 24 hours, relative to FIA = 1
Protocol: as §1
After 14 days, all animals are skin tested using 25 μg arsanilic tyrosine conjugated to either BSA or ovalbumin (BSA is used in this test when ovalbumin is present in the antigen mixture and vice versa) which is given in 0.1 ml saline intradermally in the flanks of the animals. The potencies of the test compounds in stimulating the delayed hypersensitivity reaction are then computed by multiplying the average area of the skin reaction at 24 hours by a number from 1 to 3 which is a measure of the amount of infiltration observed in each skin reaction. Thus, the procedure is as follows: skin tests with a high degree of infiltration are scored as ++ and assigned the number 3; those with a lesser degree are scored as + and given the number 2, whereas skin reactions with no infiltration are scored as zero and assigned the number 1. These numbers are then totaled for the animals in a group and the average number obtained is then multiplied by the average area of the observed skin reaction. There is thus included in the potencies the amount of infiltration coupled with the average area observed in the skin test.

CC(=O)N[C@H]1C(O)O[C@H](CO)[C@@H](O)[C@@H]1O[C@H](C)C(=O)N[C@@H](C)C(=O)N[C@H](CCC(=O)O)C(N)=O (stereo partly drawn) [2-(2-acetamido-2-deoxy-D-glucos-3-O-yl)-D-propionyl-L-alanyl-D-isoglutamine, reference compound]
Average Potency, Antibody Titre (guinea pig [1]; dose 50 μg per guinea pig): 3.7
Average Potency, Delayed Hypersensitivity to Arsanilic Tyrosine (guinea pig [2]; dose 50 μg per guinea pig): 3.3

CC(=O)N[C@H]1C(O)O[C@H](CO)[C@@H](O)[C@@H]1O[C@H](C)C(=O)N[C@@H](CC(C)C)C(=O)N[C@H](CCC(=O)O)C(N)=O (stereo partly drawn) [2-(2-acetamido-2-deoxy-D-glucos-3-O-yl)-D-propionyl-L-leucyl-D-isoglutamine]
Average Potency, Antibody Titre (guinea pig [1]; dose 50 μg per guinea pig): 5.3
Average Potency, Delayed Hypersensitivity to Arsanilic Tyrosine (guinea pig [2]; dose 50 μg per guinea pig): 7.5

CC(=O)N[C@H]1C(O)O[C@H](CO)[C@@H](O)[C@@H]1O[C@H](C)C(=O)N[C@@H](CCCCN)C(=O)N[C@H](CCC(=O)O)C(N)=O (stereo partly drawn) [2-(2-acetamido-2-deoxy-D-glucos-3-O-yl)-D-propionyl-L-lysyl-D-isoglutamine]
Average Potency, Antibody Titre (guinea pig [1]; dose 20 μg per guinea pig): 1.2
Average Potency, Delayed Hypersensitivity to Arsanilic Tyrosine (guinea pig [2]; dose 20 μg per guinea pig): 0.9

CC(=O)N[C@H]1C(O)O[C@H](CO)[C@@H](O)[C@@H]1O[C@H](C)C(=O)N[C@@H](Cc1ccccc1)C(=O)N[C@H](CCC(=O)O)C(N)=O (stereo partly drawn) [2-(2-acetamido-2-deoxy-D-glucos-3-O-yl)-D-propionyl-L-phenylalanyl-D-isoglutamine]
Average Potency, Antibody Titre (guinea pig [1]; dose 50 μg per guinea pig): 7.1
Average Potency, Delayed Hypersensitivity to Arsanilic Tyrosine (guinea pig [2]; dose 50 μg per guinea pig): 7.2

CC(=O)N[C@H]1C(O)O[C@H](CO)[C@@H](O)[C@@H]1O[C@H](C)C(=O)N1CCC[C@H]1C(=O)N[C@H](CCC(=O)O)C(N)=O (stereo partly drawn) [2-(2-acetamido-2-deoxy-D-glucos-3-O-yl)-D-propionyl-L-prolyl-D-isoglutamine]
Average Potency, Antibody Titre (guinea pig [1]; dose 50 μg per guinea pig): 7.0
Average Potency, Delayed Hypersensitivity to Arsanilic Tyrosine (guinea pig [2]; dose 50 μg per guinea pig): 6.6

CC(=O)N[C@H]1C(O)O[C@H](CO)[C@@H](O)[C@@H]1O[C@H](C)C(=O)N[C@@H](Cc1ccc(O)cc1)C(=O)N[C@H](CCC(=O)O)C(N)=O (stereo partly drawn) [2-(2-acetamido-2-deoxy-D-glucos-3-O-yl)-D-propionyl-L-tyrosyl-D-isoglutamine]
Average Potency, Antibody Titre (guinea pig [1]; dose 20 μg per guinea pig): 2.3
Average Potency, Delayed Hypersensitivity to Arsanilic Tyrosine (guinea pig [2]; dose 20 μg per guinea pig): 6.5

CC(=O)N[C@H]1C(O)O[C@H](CO)[C@@H](O)[C@@H]1O[C@H](C)C(=O)N[C@H](C(=O)N[C@H](CCC(=O)O)C(N)=O)C(C)C (stereo partly drawn) [2-(2-acetamido-2-deoxy-D-glucos-3-O-yl)-D-propionyl-L-valyl-D-isoglutamine]
Average Potency, Antibody Titre (guinea pig [1]; dose 50 μg per guinea pig): 4.0
Average Potency, Delayed Hypersensitivity to Arsanilic Tyrosine (guinea pig [2]; dose 50 μg per guinea pig): 7.1
